Test results as given in patent publication US20180279622A1, “1-AMINO-1-CYCLOPROPANECARBOXYLIC ACID FORMULATIONS” (Valent BioSciences LLC, priority 2017, published 2018).
Read-outs that look alike come from different tables or passages of the source.

Tests used:
[1] = Color change inhibition (Gardner Color Scale); assay type: physicochemical; conditions: for Color (Gardner Scale): 54° C. for two weeks
Procedure: Specifically, the color changed from clear or a 1 on the Gardner Scale to a yellow color of 4-5 on the Gardener Scale. See ASTM D1544-04(2010), Standard Test Method for Color of Transparent Liquids (Gardner Color Scale), ASTM International, West Conshohocken, Pa., 2010, www.astm.org for explanation of the Gardner scale. To overcome this problem several methods were tested including lowering the pH to 4.0, packaging under nitrogen gas blanket, adding specific salts, chelating agents, antioxidants or preservatives.

[2] = ACC precipitation and crystallization tests; assay type: physicochemical
[3] = ACC precipitation and crystallization tests; assay type: physicochemical; remark: listed apart in the source
Procedure: To overcome this problem, salts were added individually to 10% w/w ACC aqueous solutions. These solutions were stored at room temperature and analyzed for precipitate formation.

cotton cotyledons = assay: Cotton cotyledon bioefficacy assay (headspace ethylene evolution); assay type: in vivo
Procedure: The solutions were amended with 0.05% (v/v) of a non-ionic surfactant and spray applied to the adaxial surface of 10-day old cotton cotyledons using a track sprayer. In addition to ACC-containing solutions, appropriate controls were tested. Two days (48 hours) after spray application, the cotyledons from each plant were removed, weighed and incubated in sealed glass vials for 4 to 7 hours. Headspace ethylene evolution by the cotyledons was measured by gas chromatography using standard methods. The assay from Example 5, above, was repeated with a formulation containing 0.2% w/w EDTA.

Gala apple trees = assay: Apple thinning; assay type: in vivo; conditions: foliar spray at 18 to 20 mm mean fruit diameter
Procedure: The formula from Example 8, above, was diluted to prepare 200 and 400 ppm ACC solutions. These solutions were applied as a foliar spray to Gala apple trees grown at three separate locations when the mean fruit diameter was from 18 to 20 millimeters. […] Thinning activity is expressed as the number of fruit set per 100 flower clusters after the completion of natural fruit drop.

[4] = additive 0.2 % w/w in 10% ACC, 10% calcium chloride, Kathon CG/ICP formulation
[5] = salt added to 10% w/w ACC aqueous solution, 5° C. overnight
[6] = salt added to 10% w/w ACC aqueous solution, stored at room temperature

O=C([O-])CC(O)(CC(=O)[O-])C(=O)[O-].[Na+].[Na+].[Na+] [Sodium citrate]
Color (Gardner Scale) [1, 4]: 4-5

[Cl-].[Cl-].[Mg+2] [MgCl2]
Precipitation (5° C.) [2, 5]: YES

N.O=[N+]([O-])O [NH4NO3]
Precipitation (room temperature) [3]: YES | Precipitation (5° C.) [2]: YES

O=[N+]([O-])[O-].[K+] [KNO3]
Precipitation (room temperature) [3, 6]: YES | Precipitation (5° C.) [2, 5]: YES

O=C(O)/C=C/C(=O)O [Fumaric acid]
Color (Gardner Scale) [1, 4]: 4-5

NC(N)=O [Urea]
Color (Gardner Scale) [1, 4]: 5-6

[Ca+2].[Cl-].[Cl-] [CaCl2, calcium chloride]
Ethylene (cotton cotyledons; CaCl2 550 ppm, molar ratio ACC:CaCl2 0:1, 48 hours after spray): 1.49 nL/gFW/hr

O=C([O-])CC(O)(CC(=O)[O-])C(=O)[O-].[Fe+3] [Iron(III) citrate hydrate]
Precipitation (room temperature) [3, 6]: YES | Precipitation (5° C.) [2, 5]: YES

CC(=O)[O-].[Na+] [Sodium acetate]
Color (Gardner Scale) [1, 4]: 4-5

[Cl-].[K+] [KCl]
Precipitation (room temperature) [3, 6]: YES | Precipitation (5° C.) [2, 5]: YES

CC(O)C(=O)[O-].CC(O)C(=O)[O-].O.O.O.O.O.[Ca+2] (stereo not drawn) [(CH3CH(OH)COO)2Ca•5H2O]
Precipitation (room temperature) [3, 6]: YES | Precipitation (5° C.) [2, 5]: YES

NC1(C(=O)O)CC1 [ACC, 1-amino-1-cyclopropanecarboxylic acid]
Precipitation ([3]; 10% w/w ACC free acid in water, no salt, room temperature and/or 5° C.): precipitate | Ethylene (cotton cotyledons; ACC 500 ppm, molar ratio 1:0, 48 hours after spray): 39.80 nL/gFW/hr | Ethylene (cotton cotyledons; Example 6, ACC 500 ppm): 27.6 nL/g FW/hr | Thinning Activity (Gala apple trees; Geneva, NY, 200 ppm ACC): 47 fruit set per 100 flower clusters | Thinning Activity (Gala apple trees; Geneva, NY, 400 ppm ACC): 37 fruit set per 100 flower clusters | Thinning Activity (Gala apple trees; Monitor, WA, 200 ppm ACC): 32 fruit set per 100 flower clusters | Thinning Activity (Gala apple trees; Monitor, WA, 400 ppm ACC): 10 fruit set per 100 flower clusters | Thinning Activity (Gala apple trees; Parkdale, OR, 200 ppm ACC): 267 fruit set per 100 flower clusters | Thinning Activity (Gala apple trees; Parkdale, OR, 400 ppm ACC): 194 fruit set per 100 flower clusters

O=S(=O)([O-])[O-].O=S(=O)([O-])[O-].O=S(=O)([O-])[O-].[Al+3].[Al+3] [Al2(SO4)3]
Precipitation (room temperature) [3, 6]: YES | Precipitation (5° C.) [2, 5]: YES

Cl [2N hydrochloric acid, hydrochloric acid]
Color (Gardner Scale) ([1]; additive 0.6-0.9 % w/w): 3-4

Cl.N [NH4Cl]
Precipitation (room temperature) [3, 6]: YES | Precipitation (5° C.) [2, 5]: YES

O=C(O)CC(O)(CC(=O)O)C(=O)O [Citric acid]
Color (Gardner Scale) [1, 4]: 4-5

O=S(=O)([O-])[O-].[Ca+2] [CaSO4]
Precipitation (room temperature) [3, 6]: YES | Precipitation (5° C.) [2, 5]: YES

O=[N+]([O-])[O-].O=[N+]([O-])[O-].[Mg+2] [Mg(NO3)2]
Precipitation (5° C.) [2, 5]: YES

O=C(O)CN(CCN(CC(=O)O)CC(=O)O)CC(=O)O [EDTA, ethylenediaminetetraacetic acid]
Gardner scale score ([1]; EDTA at 0.1% or 0.2% w/w, 2 weeks at 54° C.): ≤ 2 | Gardner scale score ([1]; EDTA at 0.1% or 0.2% w/w, 2 weeks plus 6 additional weeks at 54° C.): 1-2 | Color maintenance versus pH ([1]; EDTA at 0.1% or 0.2% w/w, pH 4.0): best results | Time clear color maintained ([1]; EDTA at 0.1% or 0.2% w/w, pH 5.2, 54° C.): at least 4 weeks | Color (Gardner Scale) ([1]; additive 0.1 % w/w): 1-2 | Color (Gardner Scale) ([1]; additive 0.5 % w/w): 1-2

O=C1O[C@H]([C@@H](O)CO)C(O)=C1O [Ascorbic acid]
Color (Gardner Scale) [1, 4]: >18

O=[N+]([O-])[O-].O=[N+]([O-])[O-].[Ca+2] [Ca(NO3)2]
Precipitation (5° C.) [2, 5]: YES

[Ba+2].[Cl-].[Cl-] [BaCl2]
Precipitation (5° C.) [2, 5]: YES

O=[N+]([O-])[O-].[Ag+] [AgNO3]
Precipitation (room temperature) [3, 6]: YES | Precipitation (5° C.) [2, 5]: YES
